Data published in ChEMBL document CHEMBL1130952, “NMR and topochemical studies of peptidomimetic HIV-I protease inhibitors containing a cis-epoxide amide isostere” (Bioorg Med Chem Lett, 1998).

Key:
[1] = target: Human immunodeficiency virus type 1 protease (Human immunodeficiency virus 1) (UniProt Q72874); experiment: Second order rate constant was determined for the irreversible inhibition of HIV-1 protease; value ranges from 10e8- 10e10
[2] = target: Human immunodeficiency virus type 1 protease (Human immunodeficiency virus 1, UniProt Q72874); experiment: Compound was tested for 50% irreversible inhibition of HIV-1 protease; value ranges from 10-50

| Compound | K inact/Ki [1] | IC50 [2] |
| --- | --- | --- |
| CONC(=O)[C@H](NC(=O)C[C@@H]1O[C@@H]1[C@H](Cc1ccccc1)NC(=O)[C@H](CC(N)=O)NC(=O)c1ccc2ccccc2n1)C(C)C | 1.67e+06 M⁻¹ s⁻¹ | 10 nM |
| CC(C)[C@H](Cc1ccccc1)NC(=O)C[C@@H]1O[C@@H]1[C@H](Cc1ccccc1)NC(=O)[C@H](CC(N)=O)NC(=O)c1ccc2ccccc2n1 | 1.67e+06 M⁻¹ s⁻¹ | 10 nM |
| CC(C)[C@@H](NC(=O)C[C@@H]1O[C@@H]1[C@H](Cc1ccccc1)NC(=O)[C@H](CC(N)=O)NC(=O)c1ccc2ccccc2n1)c1ccccc1 | 1.67e+06 M⁻¹ s⁻¹ | 10 nM |
